Experimental data taken from patent US20240279220A1, “INDOLE COMPOUNDS AND METHODS OF USE” (Genzyme Corporation, priority 2021, published 2024).

Test system: NBD1/3D
Assay: Aggregation analysis using differential static light scattering (DSLS), NBD1 thermal stability
Format: binding, Human
Conditions: ΔTagg versus DMSO control; compound at 100 μM
Outline: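 Thermal stabilisation reported as ΔTagg, i.e. aggregation temperature relative to averaged DMSO wells. Tagg came from the inflection of differential static light scattering imaged 25–70 °C while NBD1 (0.2 mg/ml, Tris pH 7.6 buffer containing ATP, MgCl2, DTT, glycerol) was ramped 1 °C/min.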

Row | SMILES | DSLS NBD1/3D Human Stability delta-T (° C.) @ 100 (μM)
1 | CS(=O)(=O)c1c(Oc2ccc(F)c(-c3ncc(C4(c5cccc(CCC(=O)O)c5)OCCCO4)[nH]3)c2)c(F)cc2[nH]ccc12 [Example 44, 3-(3-(2-(2-(2-Fluoro-5-((6-fluoro-4-(methylsulfonyl)-1H-indol-5-yl)oxy)phenyl)-1H-imidazol-5-yl)-1,3-dioxan-2-yl)phenyl)propanoic acid] | A (A: T ≥ 10° C.)
2 | O=C(O)CCc1cc(F)cc(Cc2cnc(-c3cc(Oc4c(F)cc5[nH]ccc5c4CC(F)(F)F)ccc3F)[nH]2)c1 [Example 113, 3-(3-fluoro-5-((2-(2-fluoro-5-((6-fluoro-4-(2,2,2-trifluoroethyl)-1H-indol-5-yl)oxy)phenyl)-1H-imidazol-5-yl)methyl)phenyl)propanoic acid] | B (B: 5-10° C.)
3 | CC(CC#N)(c1cccc(CCC(=O)O)c1)c1cnc(-c2cc(Oc3c(F)cc4[nH]ccc4c3F)ccc2F)[nH]1 (stereo not drawn) [Example 77, 3-(3-(1-cyano-2-(2-(5-((4,6-difluoro-1H-indol-5-yl)oxy)-2-fluorophenyl)-1H-imidazol-5-yl)propan-2-yl)phenyl)propanoic acid] | B (B: 5-10° C.)
4 | CC(O)(c1cccc(CS(N)(=O)=O)c1)c1cnc(-c2cccc(Oc3c(F)cc4[nH]ccc4c3F)c2)[nH]1 (stereo not drawn) [Example 209, (3-(1-(2-(3-((4,6-difluoro-1H-indol-5-yl)oxy)phenyl)-1H-imidazol-5-yl)-1-hydroxyethyl)phenyl) methanesulfonamide] | B (B: 5-10° C.)
5 | Cc1c(Oc2ccc(F)c(-c3ncc(C(C)(O)c4cccc(CCC(=O)O)c4)[nH]3)c2)cc(F)c2[nH]ccc12 (stereo not drawn) [Example 195, 3-(3-(1-(2-(2-fluoro-5-((7-fluoro-4-methyl-1H-indol-5-yl)oxy)phenyl)-1H-imidazol-5-yl)-1-hydroxyethyl)phenyl) propanoic acid] | B (B: 5-10° C.)
6 | CC(c1cn(C)c(-c2cc(Oc3c(F)cc4[nH]ccc4c3F)ccc2F)n1)c1cccc(CCC(=O)O)c1F (single isomer, unassigned) [Example 278A, 3-(3-(1-(2-(5-((4,6-difluoro-1H-indol-5-yl)oxy)-2-fluorophenyl)-1-methyl-1H-imidazol-4-yl)ethyl)-2-fluorophenyl)propanoic acid] | C (C: ≤5° C.)
7 | Cc1c(Oc2cccc(-c3ncc(C(C)(O)c4cccc(C5CC5C(=O)O)c4)[nH]3)c2)ccc2[nH]ccc12 (stereo not drawn) [Example 222, 2-(3-(1-hydroxy-1-(2-(3-((4-methyl-1H-indol-5-yl)oxy)phenyl)-1H-imidazol-5-yl)ethyl)phenyl)cyclopropane-1-carboxylic acid] | B (B: 5-10° C.)
8 | CC(c1nnc(-c2cc(Oc3c(F)cc4[nH]ccc4c3F)ccc2F)[nH]1)c1cccc(CCC(=O)O)c1F (single isomer, unassigned) [Example 252B, 3-(3-(1-(5-(5-((4,6-difluoro-1H-indol-5-yl)oxy)-2-fluorophenyl)-4H-1,2,4-triazol-3-yl)ethyl)-2-fluorophenyl)propanoic acid] | C (C: ≤5° C.)
9 | CC(C#N)(c1cccc(CCC(=O)O)c1)c1c[nH]c(-c2cc(Oc3c(F)cc4[nH]ccc4c3S(C)(=O)=O)ccc2F)n1 (stereo not drawn) [Example 48, 3-(3-(1-Cyano-1-(2-(2-fluoro-5-((6-fluoro-4-(methylsulfonyl)-1H-indol-5-yl)oxy)phenyl)-1H-imidazol-4-yl)ethyl)phenyl)propanoic acid] | A (A: T ≥ 10° C.)
10 | CC(c1cnc(-c2cc(Oc3c(F)cc4[nH]ccc4c3CP(C)(C)=O)ccc2F)[nH]1)c1cccc(CCC(=O)O)c1F (single isomer, unassigned) [Example 133A, 3-(3-(1-(2-(5-((4-((dimethylphosphoryl)methyl)-6-fluoro-1H-indol-5-yl)oxy)-2-fluorophenyl)-1H-imidazol-5-yl)ethyl)-2-fluorophenyl)propanoic acid] | C (C: ≤5° C.)
11 | O=C(O)CCc1cccc(C(O)c2cnc(-c3cccc(Oc4ccc5[nH]ccc5c4C4CC4)c3)[nH]2)c1 (stereo not drawn) [Example 175, 3-(3-((2-(3-((4-cyclopropyl-1H-indol-5-yl)oxy)phenyl)-1H-imidazol-5-yl)(hydroxy)methyl)phenyl)propanoic acid] | B (B: 5-10° C.)
12 | CC(O)(c1cccc(CCC(=O)O)c1)c1c[nH]c(-c2cc(C(O)c3ccc4[nH]ccc4c3)ccc2F)n1 (stereo not drawn) [Example 218, 3-(3-(1-(2-(2-Fluoro-5-(hydroxy(1H-indol-5-yl)methyl)phenyl)-1H-imidazol-4-yl)-1-hydroxyethyl)phenyl)propanoic acid] | B (B: 5-10° C.)
13 | Cc1c(Oc2ccc(F)c(-c3ncc(C(C)c4cccc(CCC(=O)O)c4)[nH]3)c2)c(F)cc2[nH]ccc12 (stereo not drawn) [Example 213, 3-(3-(1-(2-(2-Fluoro-5-((6-fluoro-4-methyl-1H-indol-5-yl)oxy)phenyl)-1H-imidazol-5-yl)ethyl)phenyl)propanoic acid] | B (B: 5-10° C.)
14 | CC(c1c[nH]c(-c2cc(Oc3c(F)cc4[nH]ccc4c3S(C)(=N)=O)ccc2F)n1)c1cccc(CCC(=O)O)c1F (single isomer, unassigned) [Example 136B, 3-(2-fluoro-3-(1-(2-(2-fluoro-5-((6-fluoro-4-(S-methylsulfonimidoyl)-1H-indol-5-yl)oxy)phenyl)-1H-imidazol-4-yl)ethyl)phenyl)propanoic acid] | A (A: T ≥ 10° C.)
15 | CC(CO)(c1cccc(CCC(=O)O)c1)c1cnc(-c2cc(Oc3c(F)cc4[nH]ccc4c3S(C)(=O)=O)ccc2F)[nH]1 (stereo not drawn) [Example 68, 3-(3-(2-(2-(2-Fluoro-5-((6-fluoro-4-(methylsulfonyl)-1H-indol-5-yl)oxy)phenyl)-1H-imidazol-5-yl)-1-hydroxypropan-2-yl)phenyl)propanoic acid] | A (A: T ≥ 10° C.)
16 | CC(C)S(=O)(=O)c1c(Oc2ccc(F)c(-c3nc(C(C)(O)c4cccc(CCC(=O)O)c4)c[nH]3)c2)c(F)cc2[nH]ccc12 (stereo not drawn) [Example 29, 3-(3-(1-(2-(2-fluoro-5-((6-fluoro-4-(isopropylsulfonyl)-1H-indol-5-yl)oxy)phenyl)-1H-imidazol-4-yl)-1-hydroxyethyl)phenyl)propanoic acid] | B (B: 5-10° C.)
17 | Cc1c(Oc2ccc(F)c(-c3ncc(C(C)c4cccc([C@@H]5C[C@@H]5C(=O)O)c4F)[nH]3)c2)c(F)cc2[nH]ccc12 (single isomer, unassigned) [Example 138C, cis-2-(2-fluoro-3-(1-(2-(2-fluoro-5-((6-fluoro-4-methyl-1H-indol-5-yl)oxy)phenyl)-1H-imidazol-5-yl)ethyl)phenyl)cyclopropane-1-carboxylic acid] | C (C: ≤5° C.)
18 | Cc1c(Oc2ccc(F)c(-c3ncc(Cc4cccc(CCC(=O)O)n4)[nH]3)c2)c(F)cc2[nH]ccc12 [Example 90, 3-(6-((2-(2-fluoro-5-((6-fluoro-4-methyl-1H-indol-5-yl)oxy)phenyl)-1H-imidazol-5-yl)methyl)pyridin-2-yl)propanoic acid] | B (B: 5-10° C.)
